Results on seven compounds are retold here after patent US20260256921A1, “BIFUNCTIONAL MOLECULES TO TARGET DEGRADATION OF TUMOR NECROSIS FACTOR” (Biohaven Therapeutics Ltd., priority 2023, published 2026).

Read-outs that look alike come from different tables or passages of the source.

The target of test [1] is T1, human TNF-α (Homo sapiens, UniProt P01375). The experiment in a line: TNF-α functional assay (hHEK-TNF-α SEAP reporter cells). More on the design: purchased ACROBiosystems TNA-H4211. It counts as cell-based. The text has this:
Human HEK TNF-αcells (hHEK-TNF-α cells; InvivoGen Catalog #hkb-tnfdmyd; San Diego, CA, USA) are human embryonic kidney HEK293 cells that are stably transfected with the reporter gene, secreted alkaline phosphatase (SEAP). The hHEK-TNF-α cells allow for the detection of bioactive human and murine TNF-α via the activation of the NF-kB-inducible promoter and subsequent production of SEAP. Bioactivity of commercial human TNF-α protein (ActiveMax® Human TNF-α Protein, Tag Free, Low Endotoxin; available by ACROBiosystems Catalog #TNA-H4211; Newark, DE, USA) was determined in this reporter system.
Test molecules were dissolved in 100% DMSO and serially diluted by either 3-fold serial dilution or 4-fold serial dilution. […] TNF-α protein was added at the previously determined ECso. Plates containing cells, test molecules, and cytokine were incubated overnight for 18-24 hours at 37° C., 5% CO2.
The level of SEAP in the supernatant of each well was quantified using the Quanti Blue™ Solution (InvivoGen Catalog #rep-qba2; San Diego, CA, USA), a reagent with a colorimetric change in the presence of SEAP. To perform the Quanti-Blue assay: 20 L of the sample supernatant after the overnight 18-24 hour incubation was added to 180 L of Quanti Blue™ Reagent and incubated for 45 minutes at 37° C. […] Inhibition of TNF-α signaling was calculated utilizing GraphPad Prism (San Diego, CA, USA).
Target sequence in this assay (P01375 77-233 limits assumed): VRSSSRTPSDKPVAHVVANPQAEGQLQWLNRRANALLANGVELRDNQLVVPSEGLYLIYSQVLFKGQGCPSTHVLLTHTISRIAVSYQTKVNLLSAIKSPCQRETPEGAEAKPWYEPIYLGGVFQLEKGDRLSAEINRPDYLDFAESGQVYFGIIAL

In test [2] the target is T1, human TNF-α. The experiment in a line: TNF-α thermal melt assay. It counts as binding. Details: Amino acids 77-233 of Human TNF-α protein with an N-terminal GST tag; GST (N, cleaved yes); made in house; host or cells: Escherichia coli (BL21 NiCo). The procedure: Protein was purified using glutathione agarose purification columns (Pierce™, Waltham, MA, USA). Following purification, the GST tag was removed using HRV3c protease (Pierce™, Waltham, MA, USA) and the GST tag and the TNF-α were separated via ion exchange chromatography using a 20 mM HEPES pH 8.0 buffer system ramping from 0 to 1 M NaCl over 12 column volumes with 5 ml of Q Sepharose (HiScreen Q HP, Cytiva™, Marlborough, MA, USA). The final protein includes the amino acids GPLGSG at the N-terminus of the protein.
Protein was heated from 20° C. to 95° C. at one degree per minute in a Roche Opus384 qPCR machine.
Target sequence in this assay (P01375 77-233): as the sequence (P01375 77-233 limits assumed) above

Where [3] appears, read: hHEK-TNF-α cells, SEAP readout, TNF-α added at EC80 (1.034 pM), 18-24 hours, read-out: TNF-α Function IC50.
Where [4] appears, read: thermal melt, SYPRO Orange, Kd calculated as in Matulis et al., read-out: TM Kd.

By IC50 is commonly meant the concentration needed to halve the response being measured. The Kd is a measure of binding affinity in units of concentration. Turning to `CC(C)(C)OC(=O)CCOCCOCCOCCOCCOCCOCCOCCOCCC(=O)N1CCN(Cc2ccc(-c3c[nH]c4ccncc34)c(OCCc3ccc(-c4cccc5ccncc45)cc3)c2)CC1` [Intermediate 3], at human TNF-α [1] (setting [3]), the IC50 stood at 1000 nM. For the same compound, at human TNF-α [2] (setting [4]), the Kd is 120 nM.

Consider `O=C(O)CCOCCOCCOCCOCCOCCOCCOCCOCCC(=O)N1CCN(Cc2ccc(-c3c[nH]c4ccncc34)c(OCCc3ccc(-c4cccc5ccncc45)cc3)c2)CC1` [Intermediate 4], for which the IC50 at human TNF-α [1] (setting [3]) is 230 nM. Also, the Kd on human TNF-α [2] (setting [4]) is 69 nM. `CC(C)(C)OC(=O)CCOCCOCCOCCOCCOCCOCCC(=O)N1CCN(Cc2ccc(-c3c[nH]c4ccncc34)c(OCCc3ccc(-c4cccc5ccncc45)cc3)c2)CC1` [Intermediate 18]: the IC50 at human TNF-α [1] (setting [3]) came to 810 nM. For the compound `O=C(O)CCOCCOCCOCCOCCOCCOCCC(=O)N1CCN(Cc2ccc(-c3c[nH]c4ccncc34)c(OCCc3ccc(-c4cccc5ccncc45)cc3)c2)CC1` [Intermediate 19], the IC50 at human TNF-α [1] (setting [3]) was 370 nM. Take `CC(C)(C)OC(=O)CCOCCOCCC(=O)N1CCN(Cc2ccc(-c3c[nH]c4ccncc34)c(OCCc3ccc(-c4cccc5ccncc45)cc3)c2)CC1` [Intermediate 23]: the IC50 at human TNF-α [1] (setting [3]) amounted to 337 nM. Besides, the Kd on human TNF-α [2] (setting [4]) was 31 nM. On to `O=C(O)CCOCCOCCC(=O)N1CCN(Cc2ccc(-c3c[nH]c4ccncc34)c(OCCc3ccc(-c4cccc5ccncc45)cc3)c2)CC1` [Intermediate 24], for which, at human TNF-α [1] (setting [3]), the IC50 amounted to 247 nM. The Kd on human TNF-α [2] (setting [4]) was 220 nM. On to `CN1CCN(Cc2ccc(-c3c[nH]c4ccncc34)c(OCCc3ccc(-c4cccc5ccncc45)cc3)c2)CC1` [Intermediate 25], for which half-maximal inhibition on human TNF-α [1] (IC50) was put at 240 nM. On human TNF-α [2], this compound had a Kd of under 1 nM.
